Test results taken from patent US9555022B2, “Substituted triazolopyridines” (Bayer Intellectual Property GmbH, priority 2010, dated 2017).

Molecular target: human full length recombinant Mps-1 kinase (Homo sapiens (Human), UniProt P33981)
Experiment: Mps-1 Kinase Assay (TR-FRET)
Format: biochemical
Conditions: 10 μM ATP, 1 μM biotinylated peptide substrate, 60 min at 22° C., read-out: Mps-1 Inhibition, IC50 in M
Experimental: The human kinase Mps-1 phosphorylates a biotinylated substrate peptide. Detection of the phosphorylated product is achieved by time-resolved fluorescence resonance energy transfer (TR-FRET) from Europium-labelled anti-phospho-Serine/Threonine antibody as donor to streptavidin labelled with cross-linked allophycocyanin (SA-XLent) as acceptor. Compounds are tested for their inhibition of the kinase activity.
N-terminally GST-tagged human full length recombinant Mps-1 kinase (purchased from Invitrogen, Karslruhe, Germany, cat. no PV4071) was used. As substrate for the kinase reaction a biotinylated peptide of the amino-acid sequence […] (C-terminus in amide form, purchased from Biosynthan GmbH, Berlin) was used.
The concentration of Mps-1 in the assay was adjusted to the activity of the enzyme lot and was chosen appropriate to have the assay in the linear range, typical enzyme concentrations were in the range of about 1 nM (final conc. in the 5 μl assay volume).
The resulting mixture was incubated 1 h at 22° C. to allow the binding of the phosphorylated peptide to the anti-phospho(Ser/Thr)-Europium-antibody. Subsequently the amount of phosphorylated substrate was evaluated by measurement of the resonance energy transfer from the Europium-labelled anti-phospho(Ser/Thr) antibody to the Streptavidin-XLent.

human full length recombinant Mps-1 kinase, sequence (P33981 whole entry): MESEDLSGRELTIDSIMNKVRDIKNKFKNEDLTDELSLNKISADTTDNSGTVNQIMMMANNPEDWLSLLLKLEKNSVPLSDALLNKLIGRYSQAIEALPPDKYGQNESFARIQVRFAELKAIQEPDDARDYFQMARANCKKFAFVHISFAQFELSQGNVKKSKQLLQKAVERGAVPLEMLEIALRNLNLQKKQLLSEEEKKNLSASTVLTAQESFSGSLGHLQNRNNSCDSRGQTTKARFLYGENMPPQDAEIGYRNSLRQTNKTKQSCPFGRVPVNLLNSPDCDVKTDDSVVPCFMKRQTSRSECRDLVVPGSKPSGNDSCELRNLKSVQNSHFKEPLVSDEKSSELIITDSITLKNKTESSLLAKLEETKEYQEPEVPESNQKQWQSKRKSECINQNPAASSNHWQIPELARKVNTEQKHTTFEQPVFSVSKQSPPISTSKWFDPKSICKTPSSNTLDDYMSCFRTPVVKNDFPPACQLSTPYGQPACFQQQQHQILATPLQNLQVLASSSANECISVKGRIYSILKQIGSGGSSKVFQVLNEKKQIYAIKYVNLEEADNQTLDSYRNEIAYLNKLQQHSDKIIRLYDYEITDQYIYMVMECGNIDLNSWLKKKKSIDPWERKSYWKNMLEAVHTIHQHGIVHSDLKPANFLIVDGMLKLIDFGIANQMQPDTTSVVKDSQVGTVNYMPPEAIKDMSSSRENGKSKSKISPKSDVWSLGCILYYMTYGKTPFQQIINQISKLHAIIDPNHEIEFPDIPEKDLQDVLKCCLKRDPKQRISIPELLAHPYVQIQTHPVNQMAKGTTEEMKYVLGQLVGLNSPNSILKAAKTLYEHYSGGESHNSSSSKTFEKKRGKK

IC50 [nM] | Structure (SMILES)
≤ 1 | COc1cc(OC2CCN(C)CC2)ccc1Nc1nc2ccc(-c3ccc(NC(=O)Cc4ccc(F)cc4)cc3)cn2n1 [Example 02.35, 2-(4-fluorophenyl)-N-{4-[2-({2-methoxy-4-[(1-methylpiperidin-4-yl)oxy]phenyl}amino)[,2]triazolo[1,5-a]pyridin-6-yl]phenyl}acetamide]
≤ 1 | CSc1cc(OC2CCN(C)CC2)ccc1Nc1nc2ccc(-c3ccc(NC(=O)Cc4ccc(F)cc4)cc3)cn2n1 [Example 02.36, 2-(4-fluorophenyl)-N-{4-[2-({4-[(1-methylpiperidin-4-yl)oxy]-2-(methylsulfanyl)phenyl}amino)[,2]triazolo[1,5-a]pyridin-6-yl]phenyl}acetamide]
≤ 1 | COc1cc(S(=O)(=O)N2CCOCC2)ccc1Nc1nc2ccc(-c3ccc(NC(=O)Cc4ccc(F)cc4)cc3)cn2n1 [Example 02.37, 2-(4-fluorophenyl)-N-[4-(2-{[2-methoxy-4-(morpholin-4-ylsulfonyl)phenyl]amino}[,2]-triazolo[1,5-a]pyridin-6-yl)phenyl]acetamide]
≤ 1 | Cc1cc(C(=O)N2CC3(COC3)C2)ccc1Nc1nc2ccc(-c3ccc(NC(=O)Cc4ccc(F)cc4)cc3)cn2n1 [Example 02.38, 2-(4-fluorophenyl)-N-[4-(2-{[2-methyl-4-(2-oxa-6-azaspiro[3.3]hept-6-ylcarbonyl)phenyl]amino}[,2]triazolo[1,5-a]pyridin-6-yl)phenyl]acetamide]
≤ 1 | Cc1cc(C(=O)N2CCOCC2)ccc1Nc1nc2ccc(-c3ccc(NC(=O)Cc4ccc(F)cc4)cc3)cn2n1 [Example 02.39, 2-(4-fluorophenyl)-N-[4-(2-{[2-methyl-4-(morpholin-4-ylcarbonyl)phenyl]amino}[,2]-triazolo[1,5-a]pyridin-6-yl)phenyl]acetamide]
≤ 1 | O=C(Cc1ccc(F)cc1)Nc1ccc(-c2ccc3nc(Nc4ccc(C(=O)N5CC6(COC6)C5)cc4OC(F)(F)F)nn3c2)cc1 [Example 02.40, 2-(4-fluorophenyl)-N-[4-(2-{[4-(2-oxa-6-azaspiro[3.3]hept-6-ylcarbonyl)-2-(trifluoromethoxy)phenyl]amino}[,2]triazolo[1,5-a]pyridin-6-yl)phenyl]acetamide]

The remaining lines, values behind:

Structure (SMILES) | IC50 [nM]
O=C(Cc1ccc(F)cc1)Nc1ccc(-c2ccc3nc(Nc4ccc(C(=O)N5CC6(COC6)C5)cc4OCCF)nn3c2)cc1 [Example 02.30, N-[4-(2-{[2-(2-fluoroethoxy)-4-(2-oxa-6-azaspiro[3.3]hept-6-ylcarbonyl)phenyl]amino}[,2]triazolo[1,5-a]pyridin-6-yl)phenyl]-2-(4-fluorophenyl)acetamide] | ≤ 1
O=C(Cc1ccc(F)cc1)Nc1ccc(-c2ccc3nc(Nc4ccc(C(=O)N5CCOCC5)cc4OCC(F)F)nn3c2)cc1 [Example 02.31, N-[4-(2-{[2-(2,2-difluoroethoxy)-4-(morpholin-4-ylcarbonyl)phenyl]amino}[,2]-triazolo[1,5-a]pyridin-6-yl)phenyl]-2-(4-fluorophenyl)acetamide] | ≤ 1
O=C(Cc1ccc(F)cc1)Nc1ccc(-c2ccc3nc(Nc4ccc(C(=O)N5CCOCC5)cc4C(F)(F)F)nn3c2)cc1 [Example 02.32, 2-(4-fluorophenyl)-N-[4-(2-{[4-(morpholin-4-ylcarbonyl)-2-(trifluoromethyl)phenyl]amino}[,2]-triazolo[1,5-a]pyridin-6-yl)phenyl]acetamide] | ≤ 1
COc1cc(CN2CCOCC2)ccc1Nc1nc2ccc(-c3ccc(NC(=O)Cc4ccc(F)cc4)cc3)cn2n1 [Example 02.33, 2-(4-fluorophenyl)-N-[4-(2-{[2-methoxy-4-(morpholin-4-ylmethyl)phenyl]amino}[,2]-triazolo[1,5-a]pyridin-6-yl)phenyl]acetamide] | ≤ 1
CCOc1cc(OC2CCN(C)CC2)ccc1Nc1nc2ccc(-c3ccc(NC(=O)Cc4ccc(F)cc4)cc3)cn2n1 [Example 02.34, N-{4-[2-({2-ethoxy-4-[(1-methylpiperidin-4-yl)oxy]phenyl}amino)[,2]triazolo[1,5-a]pyridin-6-yl]phenyl}-2-(4-fluorophenyl)acetamide] | ≤ 1
